Test results published in patent publication US9883997B2, “Cosmetic compositions with tricyclodecane amides” (Conopco, Inc., priority 2013, dated 2018).
Read-outs that look alike come from different tables or passages of the source.

Legend:
[1] = Precursor cosmetic compositions evaluated for crystals content, i.e. solubility of solid agent in the liquid agent (Example 29); assay type: physicochemical
Protocol: The following precursor cosmetic compositions were prepared and evaluated for crystals content, i.e. solubility of solid agent in the liquid agent.
The composition is heated to a temperature above the melting point of the highest melting compound, then allowed to cool to room temperature. […] In the case of end use cosmetic compositions visualization of the crystals of solid agent was done by comparing a sample with and without tricyclodecane amide and observing the formation of crystals, if any, under the optical microscope fitted with cross-polarizers at a magnification of 10× or higher.

[2] = cited from earlier work
[3] = 2-HEU (16.6%) in OMC (50%), [S]/[L] 0.3, amide (33.3%), 24 hours
[4] = 12HSA (16.6%) in OMC (50%), [S]/[L] 0.3, amide or comparator (33%), 24 hours
[5] = Cholesterol (16.6%) in OMC (50%), [S]/[L] 0.3, amide or comparator (33.3%), 24 hours
[6] = Climbazole (28.5%) in OMC (42.8%), [S]/[L] 0.7, amide (28.5%), 24 hours
[7] = Climbazole (28.5%) in Pelemol GTIS (42.8%), [S]/[L] 0.7, amide (28.5%), 24 hours
[8] = Niacinamide (9.1%) in PPG425 (54.5%), [S]/[L] 0.2, amide (36.4%), observation at 12 hours
[9] = Niacinamide (10%) in Glucam P-20 (55%), [S]/[L] 0.2, amide (35%), 24 hours
[10] = Cholesterol (18%) in retinol proprionate (50%), [S]/[L] 0.4, amide or comparator (32%), observation at 12 hours
[11] = retinyl palmitate (28.5%) in OMC (42.8%), [S]/[L] 0.7, amide or comparator (28.5%), 24 hours
[12] = liquid cosmetic agents, Table 2

Question: What does the source list for `NC(=O)NCCO` [2-hydroxyethyl urea]?
Answer: Appearance after cooling - observation at 24 hours, except as noted ([1]; 2-HEU (24.9%) in OMC (75.1%), [S]/[L] 0.3, no tricyclodecaneamide, 24 hours): crystal + liquid; Log Po/w ([2]; solid cosmetic agents, Table 1): −0.86

Question: What does the source list for `CC(C)(C)C(=O)C(Oc1ccc(Cl)cc1)n1ccnc1` (stereo not shown) [Climbazole]?
Answer: Appearance after cooling - observation at 24 hours, except as noted ([1]; Climbazole (10%) in Pelemol GTIS (90%), [S]/[L] 0.1, no tricyclodecaneamide, 24 hours): crystal + liquid; Appearance after cooling - observation at 24 hours, except as noted ([1]; Climbazole (30%) in OMC (70%), [S]/[L] 0.4, no tricyclodecaneamide, 24 hours): crystal + liquid; Appearance after cooling - observation at 24 hours, except as noted ([1]; Climbazole (40%) in PPG425 (60%), [S]/[L] 0.7, no tricyclodecaneamide, 24 hours): crystals + liquid; Log Po/w ([2]; solid cosmetic agents, Table 1): 3.49

Question: What does the source list for `O=C(N1CCCC2CCCCC21)C12CC3CC(CC(C3)C1)C2` (stereo not shown) [Compound C10, Methanone, (decahydroquinolinyl)tricyclo[3.3.1.1^3,7]dec-1-yl-]?
Answer: Appearance after cooling - observation at 24 hours, except as noted [1, 3]: clear liquid; Appearance after cooling - observation at 24 hours, except as noted [1, 4]: translucent gel; Appearance after cooling - observation at 24 hours, except as noted [1, 5]: Clear liquid; Appearance after cooling - observation at 24 hours, except as noted [1, 6]: clear liquid; Appearance after cooling - observation at 24 hours, except as noted [1, 7]: clear liquid; Appearance after cooling - observation at 24 hours, except as noted [1, 8]: clear liquid; Appearance after cooling - observation at 24 hours, except as noted [1, 9]: clear liquid

Question: For `CC1CCCN(C(=O)C23CC4CC(CC(C4)C2)C3)C1` (stereo not shown) [Compound C14, Methanone, (3-methyl-1-piperidinyl)tricyclo[3.3.1.1^3,7]dec-1-yl-], which “Appearance after cooling - observation at 24 hours, except as noted” value (shortened to “Appearance after cooling - observation”) [1, 3] is on record?
Answer: The value was “clear liquid”.

Question: And the “Appearance after cooling - observation” value ([1]; 2-HEU (42%) in OMC (33%), [S]/[L] 1.3, amide (25%), 24 hours)?
Answer: The value was “crystal + liquid”.

Question: And the “Appearance after cooling - observation” value [1, 4]?
Answer: The value was “translucent gel”.

Question: And the “Appearance after cooling - observation” value ([1]; 12HSA (16.6%) in Pelemol TISC (50%), [S]/[L] 0.3, amide (33%), 24 hours)?
Answer: Its value is “translucent gel”.

Question: What about the “Appearance after cooling - observation” value ([1]; Avobenzone (28.5%) in Propylene glycol (42.8%), [S]/[L] 0.7, amide (28.5%), 24 hours) of the same compound?
Answer: Its value is “Crystal + liquid”.

Question: And the “Appearance after cooling - observation” value ([1]; Cholesterol (10%) in conjugated linoleic acid (45%), [S]/[L] 0.2, amide (45%), 24 hours)?
Answer: The value was “clear liquid”.

Question: And the “Appearance after cooling - observation” value [1, 5]?
Answer: The value was “Clear liquid”.

Question: What about the “Appearance after cooling - observation” value [1, 10] of the same compound?
Answer: Its value is “clear liquid”.

Question: What about the “Appearance after cooling - observation” value ([1]; Cholesterol (35%) in OMC (32%), [S]/[L] 1.1, amide (33%), 24 hours) of the same compound?
Answer: The value was “crystal + liquid”.

Question: And the “Appearance after cooling - observation” value ([1]; Cholesterol (40%) in conjugated linoleic acid (30%), [S]/[L] 1.3, amide (30%), 24 hours)?
Answer: Its value is “crystals + liquid”.

Question: What about the “Appearance after cooling - observation” value ([1]; Cholesterol (45%) in retinol proprionate (35%), [S]/[L] 1.3, amide (20%), observation at 12 hours) of the same compound?
Answer: Its value is “opaque solid”.

Question: And the “Appearance after cooling - observation” value [1, 6]?
Answer: Its value is “clear liquid”.

Question: What about the “Appearance after cooling - observation” value ([1]; Climbazole (28.5%) in PPG425 (42.8%), [S]/[L] 0.7, amide (28.5%), 24 hours) of the same compound?
Answer: The value was “clear liquid”.

Question: And the “Appearance after cooling - observation” value [1, 7]?
Answer: The value was “clear liquid”.

Question: And the “Appearance after cooling - observation” value ([1]; Climbazole (45%) in PPG425 (35%), [S]/[L] 1.3, amide (20%), 24 hours)?
Answer: The value was “crystals + liquid”.

Question: And the “Appearance after cooling - observation” value ([1]; Climbazole (50%) in Pelemol GTIS (25%), [S]/[L] 2, amide (25%), 24 hours)?
Answer: Its value is “crystal + liquid”.

Question: And the “Appearance after cooling - observation” value ([1]; Climbazole (55%) in OMC (22.5%), [S]/[L] 2.4, amide (22.5%), 24 hours)?
Answer: The value was “crystal + liquid”.

Question: What about the “Appearance after cooling - observation” value ([1]; Methyl Paraben (40%) in PPG-425 (40%), [S]/[L] 1, amide (20%), 24 hours) of the same compound?
Answer: Its value is “clear liquid”.

Question: And the “Appearance after cooling - observation” value ([1]; Methyl Paraben (60%) in PPG-425 (25%), [S]/[L] 2, amide (15%), 24 hours)?
Answer: The value was “crystal + liquid”.

Question: What about the “Appearance after cooling - observation” value [1, 8] of the same compound?
Answer: Its value is “clear liquid”.

Question: What about the “Appearance after cooling - observation” value [1, 9] of the same compound?
Answer: The value was “clear liquid”.

Question: And the “Appearance after cooling - observation” value ([1]; Niacinamide (35%) in Glucam P-20 (25%), [S]/[L] 1.4, amide (40%), 24 hours)?
Answer: The value was “crystal + liquid”.

Question: What about the “Appearance after cooling - observation” value ([1]; Niacinamide (35%) in PPG425 (32.5%), [S]/[L] 1.1, amide (32.5%), observation at 12 hours) of the same compound?
Answer: The value was “opaque solid”.

Question: What about the “Appearance after cooling - observation” value ([1]; Salicylic acid (15%) in conjugated linoleic acid (35%), [S]/[L] .4, amide (50%), 24 hours) of the same compound?
Answer: Its value is “clear liquid”.

Question: What about the “Appearance after cooling - observation” value ([1]; Salicylic acid (18%) in OMC (50%), [S]/[L] 0.4, amide (32%), 24 hours) of the same compound?
Answer: The value was “clear liquid”.

Question: And the “Appearance after cooling - observation” value ([1]; Salicylic acid (42%) in conjugated linoleic acid (33%), [S]/[L] 1.3, amide (25%), 24 hours)?
Answer: The value was “opaque solid”.

Question: And the “Appearance after cooling - observation” value ([1]; Salicylic acid (60%) in OMC (25%), [S]/[L] 2.4, amide (15%), 24 hours)?
Answer: Its value is “crystal + liquid”.

Question: What about the “Appearance after cooling - observation” value [1, 11] of the same compound?
Answer: Its value is “clear liquid”.

Question: Which “Appearance after cooling - observation” value [1, 3] does the source give for `CC(C)(C)CC(C)(C)NC(=O)C12CC3CC(CC(C3)C1)C2` [Compound C21, Methanone, (1,1-dimethyl-3,3-dimethylbutylaminyl) tricyclo[3.3.1.1^3,7]dec-1-yl-] here?
Answer: Its value is “Translucent gel”.

Question: And the “Appearance after cooling - observation” value ([1]; Avobenzone (28%) in OMC (40%), [S]/[L] 0.7, amide (32%), 24 hours)?
Answer: The value was “Clear liquid”.

Question: What about the “Appearance after cooling - observation” value ([1]; Avobenzone (45%) in OMC (27.5%), [S]/[L] 1.6, amide (27.5%), 24 hours) of the same compound?
Answer: Its value is “crystals + liquid”.

Question: What about the “Appearance after cooling - observation” value [1, 5] of the same compound?
Answer: The value was “Translucent gel”.

Question: What about the “Appearance after cooling - observation” value [1, 6] of the same compound?
Answer: The value was “clear liquid”.

Question: And the “Appearance after cooling - observation” value [1, 7]?
Answer: Its value is “clear liquid”.

Question: And the “Appearance after cooling - observation” value [1, 9]?
Answer: The value was “clear liquid”.

Question: For `O=C(O)CO` [Glycolic acid], which “Log Po/w” value ([2]; solid cosmetic agents, Table 1) is on record?
Answer: Its value is −1.2.

Question: With `CCCCCCCCCCCCCC(=O)OC(C)C` [Isopropyl myristate] as the compound, how does the “Log Po/w” value [2, 12] read?
Answer: The value was 7.25.

Question: Which “Appearance after cooling - observation” value ([1]; Niacinamide (10%) in Glucam P-20 (90%), [S]/[L] 0.1, no tricyclodecaneamide, 24 hours) does the source give for `NC(=O)c1cccnc1` [Niacinamide] here?
Answer: The value was “crystal + liquid”.

Question: What about the “Appearance after cooling - observation” value ([1]; Niacinamide (14.5%) in PPG425 (85.5%), [S]/[L] 0.2, no tricyclodecaneamide, observation at 12 hours) of the same compound?
Answer: The value was “opaque solid”.

Question: What about the “Log Po/w” value ([2]; solid cosmetic agents, Table 1) of the same compound?
Answer: The value was −0.37.

Question: Which “Log Po/w” value [2, 12] does the source give for `CCCCC(CC)COC(=O)C=Cc1ccc(OC)cc1` (stereo not shown) [Octylmethoxycinnamate] here?
Answer: Its value is 5.92.

Question: For `CC(O)CO` (stereo not shown) [Propylene glycol], which “Log P” value ([2]; liquid agent named in Table 3) is on record?
Answer: Its value is “P~−1.3)”.

Question: With `Oc1cc(Cl)ccc1Oc1ccc(Cl)cc1Cl` [Triclosan] as the compound, how does the “Log Po/w” value ([2]; solid cosmetic agents, Table 1) read?
Answer: Its value is 5.34.

Question: Which results are given for `CC(C)CCC[C@@H](C)[C@H]1CC[C@H]2[C@@H]3CC=C4C[C@@H](O)CC[C@]4(C)[C@H]3CC[C@]12C` [cholesterol]?
Answer: Appearance after cooling - observation at 24 hours, except as noted ([1]; Cholesterol (16%) in OMC (84%), [S]/[L] 0.2, no tricyclodecaneamide, 24 hours): crystal + liquid; Appearance after cooling - observation at 24 hours, except as noted ([1]; Cholesterol (20%) in conjugated linoleic acid (80%), [S]/[L] 0.2, no tricyclodecaneamide, 24 hours): crystals + liquid; Appearance after cooling - observation at 24 hours, except as noted ([1]; Cholesterol (20%) in retinol proprionate (80%), [S]/[L] 0.3, no tricyclodecaneamide, observation at 12 hours): opaque solid; Log Po/w ([2]; solid cosmetic agents, Table 1): 9.62

Question: With `CC(C)CCCCCCCCCCCCCCC(=O)OC(C)C` [isopropyl isostearate] as the compound, how does the “Log Po/w” value [2, 12] read?
Answer: Its value is 9.14.

Question: For `CCCCCCCCCCCCCCCCCC(N)=O` [octadecanamide, reference compound], which “Appearance after cooling - observation” value [1, 4] is on record?
Answer: Its value is “opaque solid”.

Question: And the “Appearance after cooling - observation” value [1, 5]?
Answer: The value was “crystal + liquid”.

Question: What about the “Appearance after cooling - observation” value [1, 10] of the same compound?
Answer: Its value is “opaque solid”.

Question: What about the “Appearance after cooling - observation” value ([1]; Climbazole (16.6%) in OMC (50%), [S]/[L] 0.7, straight chain comparator (33.3%), 24 hours) of the same compound?
Answer: The value was “crystal + liquid”.

Question: What about the “Appearance after cooling - observation” value [1, 11] of the same compound?
Answer: Its value is “crystal + liquid”.

Question: For `CCCCC(CC)COC(=O)C(C#N)=C(c1ccccc1)c1ccccc1` (stereo not shown) [octocrylene], which “Log Po/w” value [2, 12] is on record?
Answer: Its value is 6.89.

Question: For `NC(=O)c1ccccc1C(N)=O` [phthalamide, reference compound], which “Appearance after cooling - observation” value [1, 4] is on record?
Answer: Its value is “opaque solid”.

Question: Which “Appearance after cooling - observation” value ([1]; Avobenzone (45%) in OMC (27.5%), [S]/[L] 2, straight chain comparator (27.5%), 24 hours) does the source give for `CCCCCCCCCCCCCC(=O)NC1CCCC(C)C1` (stereo not shown) [tetradecanoic acid (3 methyl-cyclohexyl)-amide, reference compound] here?
Answer: The value was “crystals + liquid”.

Question: For Conjugated linoleic acid, which “Log Po/w” value [2, 12] is on record?
Answer: The value was greater than 6.
